pIC50: −log10 of the molar value. Values belong to the compound of their own block, whether it stands above or below them.
Tested on: 958667-338-R-J2-PDC tumor spheroids viability
Test: Anticancer human tumor 958667-338-R-J2-PDC patient-derived colon adenocarcinoma cell line growth inhibition [PI3K]
Conditions: spheroids with HUVEC and MSC; for viability, T/C: stronger effect = lower value
Excerpt: Combinatorial screen of targeted agents with the PI3K inhibitors inavolisib, alpelisib, duvelisib, and copanlisib in multi-cell type tumor spheroids
A high-throughput screen of multi-cell type tumor spheroids was designed to identify active combinations of targeted small molecules and PI3K pathway inhibitors. Complex spheroids include a stromal component modeled by human endothelial cells (HUVEC) and fibroblasts modeled by human mesenchymal stem cells (MSCs). The concentration ranges selected for each drug and investigational agent were based upon clinically achievable concentrations if the clinical Cmax of the agent was known.
Compounds. The drugs and investigational agents: inavolisib (NSC800729), alpelisib (NSC765974), duvelisib (NSC772469), copanlisib (NSC816437), ipatasertib (NSC767898), afuresertib (NSC778305), talazoparib (NSC767125), sapanisertib (NSC764658), selumetinib (NSC741078), tovorafenib (DAY101, NSC766906), vemurafenib (NSC761431), ravoxertinib (NSC781343), sotorasib (NSC818433), MRTX1133 (NSC 836407), abemaciclib (NSC 768073), palbociclib (NSC758247), venetoclax (NSC 766270), SY5609 (NSC837396), enzalutamide (NSC755605), and darolutamide (NSC825331), were obtained from the National Cancer Institute (NCI) Developmental Therapeutics Program Chemical Repository. The FDA-approved anticancer drug set is available from the NCI Developmental Therapeutics Program. […] The stock solutions were prepared in dimethyl sulfoxide (DMSO, Sigma-Aldrich, St. Louis, MO, cat. D2650) at 800-fold the tested concentration and stored at -70 degrees C prior to their use. All drugs and investigational agents were tested over a range starting from a high concentration at or near the clinical Cmax and decreasing in half-log increments. If the clinical Cmax for an agent had not been determined, the highest concentration tested was 10 microM.
Cell Culture. All cells were maintained in an incubator at 37 degrees C and 5% CO2 with 95% humidity. The PDC lines were cultured according to standard operating procedures established by the NCI PDMR (https://pdmr.cancer.gov/sops/default.htm). All PDCs were thawed and cultured in Matrigel-coated flasks prepared with a working solution of 1X Ham's F-12 nutrient mix, without supplementation (Invitrogen, Waltham, MA, cat. 11765054), 100 U/mL penicillin-streptomycin (Invitrogen, cat. 15140122), and 2.5% Matrigel (Corning Inc., Corning, NY, cat. 354248) for the first three passages. The 354836-022-R-J1-PDC, 475296-252-R-J1-PDC, and 997726-040-R-J2-PDC lines were cultured in 6A media, which includes advanced DMEM/F-12 (Thermo Fisher Scientific, cat. 12634028), 10 mM HEPES (Thermo Fisher Scientific, cat. 15630080), 1X GlutaMAX supplement (Thermo Fisher Scientific, cat. 35050061), 0.1 mg/mL primocin (InvivoGen, San Diego, CA, cat. ant-pm-2), 10% defined fetal bovine serum, heat inactivated (HyClone Laboratories Inc., Logan, UT, cat. SH30070.03HI), 50% L-WRN conditioned media (ATCC, cat. CRL-3276), 1.25 mM N-Acetyl-L-cysteine (Sigma-Aldrich, cat. A9165), 10 mM nicotinamide (Sigma-Aldrich, cat. N0636), 1X B-27 supplement (Thermo Fisher Scientific, cat. 17504044), 1X N-2 supplement (Thermo Fisher Scientific, cat. 17502048), and 10 microM Y-27632 dihydrochloride (Tocris Bioscience, Bristol, United Kingdom, cat. 1254). The 624824-186-R-J2-PDC line was cultured in 6C/Colon 1B media, which includes all 6A media components plus 50 ng/mL human EGF recombinant protein (Thermo Fisher Scientific, cat. PHG0311). […]

[1] = curve of first compound, second compound 0.0316 µM
[2] = curve of first compound, second compound 0.1 µM
[3] = curve of first compound, second compound 0.316 µM
[4] = curve of first compound, second compound 1 µM
[5] = second compound 0.0316 µM, first compound 0.0316 µM
[6] = second compound 0.0316 µM, first compound 0.1 µM
[7] = second compound 0.0316 µM, first compound 0.316 µM
[8] = second compound 0.0316 µM, first compound 1 µM
[9] = second compound 0.0316 µM, first compound 3.16 µM
[10] = second compound 0.0316 µM, first compound 10 µM
[11] = second compound 0.1 µM, first compound 0.0316 µM
[12] = second compound 0.1 µM, first compound 0.1 µM
[13] = second compound 0.1 µM, first compound 0.316 µM
[14] = second compound 0.1 µM, first compound 1 µM
[15] = second compound 0.1 µM, first compound 3.16 µM
[16] = second compound 0.1 µM, first compound 10 µM
[17] = second compound 0.316 µM, first compound 0.0316 µM
[18] = second compound 0.316 µM, first compound 0.1 µM
[19] = second compound 0.316 µM, first compound 0.316 µM
[20] = second compound 0.316 µM, first compound 1 µM
[21] = second compound 0.316 µM, first compound 3.16 µM
[22] = second compound 0.316 µM, first compound 10 µM
[23] = second compound 1 µM, first compound 0.0316 µM
[24] = second compound 1 µM, first compound 0.1 µM
[25] = second compound 1 µM, first compound 0.316 µM
[26] = second compound 1 µM, first compound 1 µM
[27] = second compound 1 µM, first compound 3.16 µM
[28] = second compound 1 µM, first compound 10 µM
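Also: spheroids exposed to compounds for seven days before readout.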

pIC50 [1]: 5.35
pIC50 [2]: 5.63
pIC50 [3]: 5.38
pIC50 [4]: 5.51
pIC50 (curve of first compound, second compound 3.16 µM): 5.52
pIC50 (curve of first compound, second compound 10 µM): 5.52
SMILES: CC1(C)CCC(Nc2ncc(C(F)(F)F)c(-c3c[nH]c4c(P(C)(C)=O)c(C#N)ccc34)n2)CN1 (stereo unspecified) + CC(Nc1ncnc2nc[nH]c12)c1cc2cccc(Cl)c2c(=O)n1-c1ccccc1
viability, T/C [5]: 101%
viability, T/C [6]: 94.6%
viability, T/C [7]: 82.8%
viability, T/C [8]: 69%
viability, T/C [9]: 70.1%
viability, T/C [10]: 25.9%
viability, T/C [11]: 113%
viability, T/C [12]: 72.1%
viability, T/C [13]: 72%
viability, T/C [14]: 62.5%
viability, T/C [15]: 64.9%
viability, T/C [16]: 20%
viability, T/C [17]: 98%
viability, T/C [18]: 106%
viability, T/C [19]: 80.4%
viability, T/C [20]: 74%
viability, T/C [21]: 63.9%
viability, T/C [22]: 24.6%
viability, T/C [23]: 82.4%
viability, T/C [24]: 103%
viability, T/C [25]: 90.6%
viability, T/C [26]: 65.4%
viability, T/C [27]: 54.5%
viability, T/C [28]: 30.8%
viability, T/C (second compound 3.16 µM, first compound 0.0316 µM): 117%
viability, T/C (second compound 3.16 µM, first compound 0.1 µM): 96.1%
viability, T/C (second compound 3.16 µM, first compound 0.316 µM): 86%
viability, T/C (second compound 3.16 µM, first compound 1 µM): 64.1%
viability, T/C (second compound 3.16 µM, first compound 3.16 µM): 60.8%
viability, T/C (second compound 3.16 µM, first compound 10 µM): 21.8%
viability, T/C (second compound 10 µM, first compound 0.0316 µM): 84.6%
viability, T/C (second compound 10 µM, first compound 0.1 µM): 69.1%
viability, T/C (second compound 10 µM, first compound 0.316 µM): 84.2%
viability, T/C (second compound 10 µM, first compound 1 µM): 66.3%
viability, T/C (second compound 10 µM, first compound 3.16 µM): 49.6%
viability, T/C (second compound 10 µM, first compound 10 µM): 14.2%

pIC50 (curve of compound): < 5.00
SMILES: C#Cc1c(F)ccc2cc(O)cc(-c3ncc4c(N5CC6CCC(C5)N6)nc(OCC56CCCN5CC(F)C6)nc4c3F)c12 (stereo unspecified)
viability, T/C (compound 0.0316 µM): 98.5% [middle of 4 runs]
viability, T/C (compound 0.1 µM): 103% [middle of 4 runs]
viability, T/C (compound 0.316 µM): 101% [middle of 4 runs]
viability, T/C (compound 1 µM): 97.3% [middle of 4 runs]
viability, T/C (compound 3.16 µM): 86.7% [middle of 4 runs]
viability, T/C (compound 10 µM): 63.8% [middle of 4 runs]

pIC50 (curve of first compound, second compound 0.00316 µM): 5.52
pIC50 (curve of first compound, second compound 0.01 µM): 5.63
pIC50 [1]: 5.57
pIC50 [2]: 5.71
pIC50 [3]: 6.03
pIC50 [4]: > 7.50
SMILES: Cn1ncc(Cl)c1-c1cc(C(=O)NC(CN)Cc2cccc(F)c2)sc1Cl (stereo unspecified) + CC(Nc1ccc2c(c1)OCCn1cc(N3C(=O)OCC3C(F)F)nc1-2)C(N)=O
viability, T/C (second compound 0.00316 µM, first compound 0.0316 µM): 98.9%
viability, T/C (second compound 0.00316 µM, first compound 0.1 µM): 94.4%
viability, T/C (second compound 0.00316 µM, first compound 0.316 µM): 96.2%
viability, T/C (second compound 0.00316 µM, first compound 1 µM): 76.3%
viability, T/C (second compound 0.00316 µM, first compound 3.16 µM): 49.4%
viability, T/C (second compound 0.00316 µM, first compound 10 µM): 41.6%
viability, T/C (second compound 0.01 µM, first compound 0.0316 µM): 109%
viability, T/C (second compound 0.01 µM, first compound 0.1 µM): 104%
viability, T/C (second compound 0.01 µM, first compound 0.316 µM): 104%
viability, T/C (second compound 0.01 µM, first compound 1 µM): 75%
viability, T/C (second compound 0.01 µM, first compound 3.16 µM): 41.8%
viability, T/C (second compound 0.01 µM, first compound 10 µM): 27.7%
viability, T/C [5]: 106%
viability, T/C [6]: 91.2%
viability, T/C [7]: 94.2%
viability, T/C [8]: 85.8%
viability, T/C [9]: 44.3%
viability, T/C [10]: 29.5%
viability, T/C [11]: 95.8%
viability, T/C [12]: 89%
viability, T/C [13]: 79.4%
viability, T/C [14]: 65.7%
viability, T/C [15]: 38.4%
viability, T/C [16]: 25.6%
viability, T/C [17]: 54.1%
viability, T/C [18]: 79.6%
viability, T/C [19]: 63%
viability, T/C [20]: 48.5%
viability, T/C [21]: 31.8%
viability, T/C [22]: 24.9%
viability, T/C [23]: 46.1%
viability, T/C [24]: 54.1%
viability, T/C [25]: 45.1%
viability, T/C [26]: 46%
viability, T/C [27]: 31.2%
viability, T/C [28]: 20.8%

— PubChem BioAssay AID1963963 (Molecular Pharmacology Branch, DTP, NCI, 2024)
